Data published in patent US12104201B2, “Engineered gyri-like mutein aptamers, and related methods” (CROSSLIFE TECHNOLOGIES INC., priority 2019, dated 2024).
Residue numbers refer to the chain shown, from its start. Names and notes keep the numbering of the source.

What was measured:
[1] = target: T1, SAV2435 WT (S. aureus Gyrl-like protein, wild type, SEQ ID NO:2) (Staphylococcus aureus, UniProt A0A0H3K0Y5); type: binding
T1 construct: listing organism Escherichia coli is only the host

[2] = target: T2, CTR107 WT (C. tepidium Gyrl-like protein, wild type, SEQ ID NO:4) (Chlorobaculum tepidum, UniProt Q8KFZ1); assay: biochemical; type: binding
T2 construct: begins […]

[3] = target: T3, LIN2189 WT (L. innocua Gyrl-like protein, wild type, SEQ ID NO:6) (Listeria innocua, UniProt Q929T5); assay: Fluorescence binding assay (enhancement/quenching of dye fluorescence); details: 1 μM FAM, saturating protein
T3 construct: recombinant, purified
T3 sequence (Q929T5 with tags, fused parts or gaps): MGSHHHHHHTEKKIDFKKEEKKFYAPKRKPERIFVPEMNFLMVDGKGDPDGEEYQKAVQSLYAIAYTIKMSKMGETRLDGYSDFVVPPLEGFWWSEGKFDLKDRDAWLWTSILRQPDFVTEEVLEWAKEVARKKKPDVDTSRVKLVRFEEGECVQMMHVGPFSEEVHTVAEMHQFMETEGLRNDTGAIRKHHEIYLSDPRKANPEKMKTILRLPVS
Method: (§1) Fluorescence Binding Assay
CTR107 when added at 10 μM induced a 10-fold increase in DFHBI fluorescence (FIG. 6A).
Malachite Green fluoresces in the far-red regions when stimulated by binding aptamers, therefore we monitored its fluorescence emission at 665-720 nm after exciting at 635 nm.
Thioflavin T is a benzothiazole dye that has also been used in many fluorescence applications. […] The Corn aptamer is able to bind to two Thioflavin T molecules at a homodimer interface formed by G-quadruplexes. We tested whether Gyrl-like proteins could function as fluorescence enhancement aptamers of Thioflavin T. Thioflavin T has excitation and emission maxima of […], respectively. We probed the fluorescence enhancing properties of SAV2435, CTR107 and LIN2189 variants on Thioflavin T (FIG. 8). […] All other variants display either a small 4-6 fold increase or no increase in Thioflavin T fluorescence.

[4] = target: C. tepidium CTR107 variant E36R (SEQ ID NO:18) (Chlorobaculum tepidum, UniProt Q8KFZ1, E36R); type: binding; details: FAM
[5] = target: T4, C. tepidium CTR107 variant Y106W (SEQ ID NO:20) (Chlorobaculum tepidum, UniProt Q8KFZ1, Y106W); assay: biochemical; type: binding
T4 sequence (Q8KFZ1 with tags, fused parts or gaps Y106W): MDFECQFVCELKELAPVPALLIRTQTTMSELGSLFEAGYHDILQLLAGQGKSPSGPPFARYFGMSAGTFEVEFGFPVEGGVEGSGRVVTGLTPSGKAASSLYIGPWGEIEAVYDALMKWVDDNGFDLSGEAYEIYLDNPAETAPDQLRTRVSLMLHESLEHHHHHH

[6] = target: T5, C. tepidium CTR107 variant E133Q (SEQ ID NO:22) (Chlorobaculum tepidum, UniProt Q8KFZ1, E133Q); type: binding
T5 sequence (Q8KFZ1 with tags, fused parts or gaps E133Q): T4 sequence (Q8KFZ1 with tags, fused parts or gaps Y106W) with W106Y, E133Q

[7] = target: T6, L. innocua LIN2189 variant E157A (SEQ ID NO:28) (Listeria innocua, UniProt Q929T5, E157A); type: binding; details: FAM
T6 construct: listing organism Escherichia coli is only the host

[8] = target: FAM antibody; assay: Fluorescence-binding assay, Kd by nonlinear regression fit to the Hill equation
Source text: as §1

[9] = target: C. tepidium CTR107 variant, highest affinity FAM-binding aptamer from phage display library (Chlorobaculum tepidum, UniProt Q8KFZ1); assay: as above
[10] = target: C. tepidium CTR107 variant, weakest FAM-binding aptamer from phage display library (Chlorobaculum tepidum, UniProt Q8KFZ1); assay: as above
[11] = target: S. aureus SAV2435 variant V105W (SEQ ID NO:10) (Staphylococcus aureus, UniProt A0A0H3K0Y5, V105W); type: binding; details: 500 nM Acridine Orange
[12] = target: S. aureus SAV2435 variant P106W (SEQ ID NO:12) (Staphylococcus aureus, UniProt A0A0H3K0Y5, P106W); type: binding; details: 500 nM Acridine Orange
[13] = target: S. aureus SAV2435 variant N27W (SEQ ID NO:8) (Staphylococcus aureus, UniProt A0A0H3K0Y5); type: binding; details: Acridine Orange
[14] = target: S. aureus SAV2435 variant Y137W (SEQ ID NO:16) (Staphylococcus aureus, UniProt A0A0H3K0Y5, V105W/Y137W); type: binding; details: Acridine Orange
[15] = target: S. aureus SAV2435 variant E135Q (SEQ ID NO:14) (Staphylococcus aureus, UniProt A0A0H3K0Y5, E135Q/V105W); type: binding; details: 500 nM Acridine Orange
[16] = test system: E. coli expressing SAV2435 WT; assay: In vivo drug-binding aptamer screening (ampicillin resistance); details: E. coli growth, OD600, 24 hrs
[17] = test system: E. coli expressing CTR107 WT; assay: as above; details: E. coli growth, OD600, 24 hrs
[18] = test system: E. coli expressing LIN2189 DUB; assay: as above; details: E. coli growth, OD600, 24 hrs
[19] = test system: bacterial growth; ampicillin pre-incubated with LIN2189 (LIN2189 DUB); assay: Ex vivo drug-metabolizing aptamer screening (bacterial growth in ampicillin pre-incubated with protein)
[20] = Acridine Orange fluorescence assay; details: 500 nM Acridine Orange
[21] = Colorimetric conversion of Iodonitrotetrazolium to Formazan; details: 100 μM NADH; 500 μM Iodonitrotetrazolium; 5 minutes
[22] = UV fluorescence quenching of Daunorubicin; details: 5 μM daunorubicin; saturating protein

T2 sequence (Q8KFZ1 entry or part of it): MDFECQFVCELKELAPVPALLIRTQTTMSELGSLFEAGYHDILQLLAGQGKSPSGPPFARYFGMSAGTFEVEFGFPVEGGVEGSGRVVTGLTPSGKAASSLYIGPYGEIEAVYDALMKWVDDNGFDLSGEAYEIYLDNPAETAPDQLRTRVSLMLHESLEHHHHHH
Chain of C. tepidium CTR107 variant E36R (SEQ ID NO:18) (Q8KFZ1 entry or part of it E36R): as the sequence (Q8KFZ1 entry or part of it) above, with E36R counted along it
T6 sequence (Q929T5 entry or part of it E157A): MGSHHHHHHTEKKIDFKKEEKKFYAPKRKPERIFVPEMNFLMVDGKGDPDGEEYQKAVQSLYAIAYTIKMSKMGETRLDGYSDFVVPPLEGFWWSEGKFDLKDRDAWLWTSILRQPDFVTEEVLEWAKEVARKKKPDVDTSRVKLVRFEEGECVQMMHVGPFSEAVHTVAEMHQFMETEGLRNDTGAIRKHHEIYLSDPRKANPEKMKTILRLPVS

In the case of 5(6)-Carboxyfluorescein [FAM], the effect on fluorescence ([1]; 1 μM FAM, saturating protein) is reported as “no effect”, the decrease in fluorescence ([2]; 1 μM FAM, saturating protein) is reported as 6 fold and the decrease in fluorescence [3] is reported as 2 fold. For the same molecule, the fluorescence quenching [4] was “loss of quenching properties”, the fluorescence quenching ([5]; FAM) was “loss of quenching properties” and the fluorescence quenching ([6]; FAM) was “loss of quenching properties”. For the same molecule, the “changes in fluorescence quenching compared to LIN2189 WT” value [7] was “no changes”, the Kd [8] was 8 nM and the “affinity relative to FAM antibody” value [9] was 11 fold. The Kd [10] was 3 nM.

With CN(C)c1ccc2cc3ccc(N(C)C)cc3nc2c1 [Acridine Orange] the “quenching effect on fluorescence” value ([1]; Acridine Orange) was 2-3 fold, the “increase in fluorescence intensity” value ([2]; 500 nM Acridine Orange) was “doubled” and the “quenching effect on fluorescence” value ([5]; Acridine Orange) was 2-3 fold. For the same molecule, the “increase in fluorescence intensity” value ([6]; 500 nM Acridine Orange) was “doubled”, the “increase in fluorescence intensity” value [11] was “doubled” and the “increase in fluorescence intensity” value [12] was “doubled”. The “quenching effect on fluorescence” value [13] was 2-3 fold, the “quenching effect on fluorescence” value [14] was 2-3 fold and the “increase in fluorescence intensity” value [15] was “doubled”.

In the case of CC1(C)S[C@@H]2[C@H](NC(=O)[C@H](N)c3ccccc3)C(=O)N2[C@H]1C(=O)O [Ampicillin], the susceptibility to ampicillin [16] is reported as “susceptible”, the “partial resistance up to ampicillin concentration” value [17] is reported as “up to 100 μg/ml” and the “highest resistance at ampicillin concentration” value [18] is reported as 100 µg/mL. For the same molecule, the “resistance up to ampicillin concentration” value [19] was “up to 500 μg/ml”.

B1: CTR107 E133Q: CTR107 variant aptamer, SEQ ID NO:22 (protein, listed as Escherichia coli)
chain: T4 sequence (Q8KFZ1 with tags, fused parts or gaps Y106W) with W106Y, E133Q
For B1, the “Acridine Orange fluorescence increase” value [20] was “doubled the fluorescence intensity” and the “color change of Iodonitrotetrazolium with NADH” value [21] was “faint red signal”.

B2: CTR107 Y106W: CTR107 variant aptamer, SEQ ID NO:20 (protein, listed as Escherichia coli)
chain: T4 sequence (Q8KFZ1 with tags, fused parts or gaps Y106W)
In the case of B2, the “UV fluorescence of Daunorubicin with protein” value [22] is reported as “complete shut off of fluorescence”.
